Tests used:
Myeloperoxidase activity = Myeloperoxidase activity in colon tissue, TNBS colitis; format: in vivo, rat; settings: 11 days after TNBS; 8-day treatment
Protocol: Following a 24 hr fast, rats were lightly anesthetized using isoflurane followed by insertion of a polyethylene catheter into the anus. The tip of the catheter was advanced 8 cm proximal from the anus and a single dose of TNBS (Sigma, St. Louis, Mo.), dissolved in 50% ethanol, was injected through the cannula (15 mg dissolved in a 0.6 ml volume of 50% ethanol) to induce colitis. Following the administration of TNBS the animals were maintained in a head-down position for approximately 60 seconds to prevent leakage of the infusate. After 72 hrs, rats dosed initially with TNBS were randomly assigned to one of four treatment groups to receive daily intracolonic therapy in a manner similar to that used for TNBS administration. […] An additional group of rats (Group E) served as control and received saline per rectum on day 0 and at subsequent intervals that corresponded to treatment protocols. Rats were treated for either 5 or 8 days and then sacrificed by cervical dislocation. FIG. 1 illustrates the design of these experiments. Myeloperoxidase activity was used as an indirect measure of the severity of colonic inflammation by PMNs. […] C. The tissues were then removed from storage at −80° C. and allowed to thaw on ice. […] The absorbance changes were read at 450 nm and recorded. Results were expressed as ng/ml/g of tissue.

DSS-induced colitis = test: Histological assessment of DSS-induced colitis; format: in vivo, rat; settings: DSS colitis (4% DSS, 4 days); 4-day intracolonic treatment; maximal score 12
Text: Male Sprague Dawley rats (200-250 grams) were housed in cages containing contact bedding. Rats were deprived of food for 24 hrs prior to the induction of colitis, but were allowed free access to water throughout the experiment. Institutional approval for experimental protocols was provided by the research and animal care committees of the research services at the Oklahoma City Veterans Administration Medical Center. Colitis was induced by oral administration of a 4% solution of DSS (dextran sulfate sodium) in drinking water for 4 days. […] Animals received treatment for 4 days. Macroscopic indices of colonic injury were scored and tabulated. Histological features that were examined included epithelial damage and mucosal ulceration. Additional measures included determination of serum C-reactive protein (CRP) levels and cytokine gene expression in colonic tissues performed by ribonuclease protection assay (RPA). Colonic tissue samples taken from the initial segment were immersed in 10% phosphate buffered formalin and subsequently embedded in paraffin. Sections of 3 micron thickness were cut and stained with hematoxylin and eosin. The slides were then evaluated by a pathologist for epithelial damage, architectural changes, mononuclear infiltration, polymorphonuclear leukocyte (PMN) infiltration and ulceration. […]

TNBS-induced colitis [1] = test: Histological assessment of TNBS-induced colitis; format: in vivo, rat; settings: for Cumulative (aggregate) microscopic colitis injury score: 8 days after TNBS, 5-day treatment, scale 0-15; for Decrease in aggregate microscopic injury score: 11 days after TNBS, 8-day treatment, vs TNBS alone
Text: Male Sprague Dawley rats (200-250 grams) were housed in cages containing contact bedding. Rats were deprived of food for 24 hrs prior to the induction of colitis, but were allowed free access to water throughout the experiment. Institutional approval for experimental protocols was provided by the research and animal care committees of the research services at the Oklahoma City Veterans Administration Medical Center. Following a 24 hr fast, rats were lightly anesthetized using isoflurane followed by insertion of a polyethylene catheter into the anus. The tip of the catheter was advanced 8 cm proximal from the anus and a single dose of TNBS (Sigma, St. Louis, Mo.), dissolved in 50% ethanol, was injected through the cannula (15 mg dissolved in a 0.6 ml volume of 50% ethanol) to induce colitis. Following the administration of TNBS the animals were maintained in a head-down position for approximately 60 seconds to prevent leakage of the infusate. After 72 hrs, rats dosed initially with TNBS were randomly assigned to one of four treatment groups to receive daily intracolonic therapy in a manner similar to that used for TNBS administration. […] An additional group of rats (Group E) served as control and received saline per rectum on day 0 and at subsequent intervals that corresponded to treatment protocols. Rats were treated for either 5 or 8 days and then sacrificed by cervical dislocation. FIG. 1 illustrates the design of these experiments. Colonic tissue samples taken from the initial segment were immersed in 10% phosphate buffered formalin and subsequently embedded in paraffin. Sections of 3 micron thickness were cut and stained with hematoxylin and eosin. The slides were then evaluated by a pathologist for epithelial damage, architectural changes, mononuclear infiltration, polymorphonuclear leukocyte (PMN) infiltration and ulceration. The individual microscopic features of colitis were graded according to criteria noted in Table 2. In addition to scoring individual features of colitis, an aggregate score of colitis was tabulated by adding together individual scores, thus, providing a global assessment of colitis. [table]

IL-1A = test: Cytokine gene expression in rat colon (RPA), TNBS colitis; format: in vivo; settings: 11 days after TNBS, 8-day treatment
Protocol: (§1) Following a 24 hr fast, rats were lightly anesthetized using isoflurane followed by insertion of a polyethylene catheter into the anus. The tip of the catheter was advanced 8 cm proximal from the anus and a single dose of TNBS (Sigma, St. Louis, Mo.), dissolved in 50% ethanol, was injected through the cannula (15 mg dissolved in a 0.6 ml volume of 50% ethanol) to induce colitis. Following the administration of TNBS the animals were maintained in a head-down position for approximately 60 seconds to prevent leakage of the infusate. After 72 hrs, rats dosed initially with TNBS were randomly assigned to one of four treatment groups to receive daily intracolonic therapy in a manner similar to that used for TNBS administration. […] An additional group of rats (Group E) served as control and received saline per rectum on day 0 and at subsequent intervals that corresponded to treatment protocols. Rats were treated for either 5 or 8 days and then sacrificed by cervical dislocation. FIG. 1 illustrates the design of these experiments. Following the manufacturer's protocol, 1 ml of TRI Reagent (Sigma, St. Louis, Mo.) is used per 100 mg of tissue. The frozen tissue is placed into the TRI Reagent and immediately homogenized using a tissue macerator. The homogenates are transferred to microcentrifuge tubes and 0.2 ml of chloroform is added per ml of TRI Reagent used. The samples are shaken thoroughly and allowed to sit at room temp for 3 min. Samples were then centrifuged at 12000×g for 15 min at […]. After centrifugation, the upper aqueous phase was transferred to a new tube and […] of 2-propanol is added to precipitate the RNA. After sitting at room temp for 10 min. the samples are centrifuged at 12000×g for 15 min. The supernatants are discarded and the pellets are washed in 70% ethanol followed by centrifugation at 12000×g for 5 min. The ethanol was removed and the pellets are dissolved in 50 μl of DEPC treated water per sample. Quantitation is performed by spectrophotometry at 260 nm and 280 nm. RPA analysis was performed with RiboQuant™ multi-probe RNase protection assay system (BD Biosciences-Pharmingen, San Diego, Calif.). To 20 μg of total RNA in 8 μl of hybridization buffer and 2 μl of ^32P-labeled in vitro transcribed RNA probes were added. The probes were transcribed from the multiprobe template set rCK-1 which as a panel of probes against IL-1a, IL-1b, IL-3, IL-5, IL-10, IL-2, TNFα, TNBβ, GAPDH genes. Probes were prepared according to the manufactures protocol. The RNA samples containing labeled probes were incubated briefly at 90° C., slowly cooled to 56° C. and hybridized overnight at that temperature. The samples were then slowly cooled to 30° C. Thereafter, a mixture of RNases A and T1 was added to digest single-stranded RNA leaving the double-stranded RNA formed by the probes annealing to their cognate mRNAs intact. Following proteinase K digestion and phenol-chloroform extraction, the undigested double-stranded RNA was precipitated with ammonium acetate and ethanol. […] The ethanol was removed and the pellets were dissolved in 5 μl of formamide loading dye. The double-stranded RNAs were resolved on a 5% polyacrylamide/urea gel run in TBE buffer. After electrophoresis, the gel was dried at 80° C. under vacuum and then exposed to a PhosphorImager screen overnight. Detection and quantitation of the resolved bands on the gel were performed on a Storm PhosphorImager™ system (Amersham Biosciences, Piscataway, N.J.).

IL-4 = test: as above; format: in vivo; settings: 11 days after TNBS, 8-day treatment
Protocol: as §1

TNF-α = test: as above; format: in vivo; settings: 11 days after TNBS, 8-day treatment
Protocol: as §1

IL-1B = test: as above; format: in vivo; settings: 11 days after TNBS, 8-day treatment
Protocol: as §1

IL-6 = test: as above; format: in vivo; settings: 11 days after TNBS, 8-day treatment
Protocol: as §1

TNBS-induced colitis [2] = test: Macroscopic assessment of TNBS-induced colitis; format: in vivo, rat; settings: scale 0-6
Text: Male Sprague Dawley rats (200-250 grams) were housed in cages containing contact bedding. Rats were deprived of food for 24 hrs prior to the induction of colitis, but were allowed free access to water throughout the experiment. Institutional approval for experimental protocols was provided by the research and animal care committees of the research services at the Oklahoma City Veterans Administration Medical Center.
Following a 24 hr fast, rats were lightly anesthetized using isoflurane followed by insertion of a polyethylene catheter into the anus. The tip of the catheter was advanced 8 cm proximal from the anus and a single dose of TNBS (Sigma, St. Louis, Mo.), dissolved in 50% ethanol, was injected through the cannula (15 mg dissolved in a 0.6 ml volume of 50% ethanol) to induce colitis. Following the administration of TNBS the animals were maintained in a head-down position for approximately 60 seconds to prevent leakage of the infusate. After 72 hrs, rats dosed initially with TNBS were randomly assigned to one of four treatment groups to receive daily intracolonic therapy in a manner similar to that used for TNBS administration. […] An additional group of rats (Group E) served as control and received saline per rectum on day 0 and at subsequent intervals that corresponded to treatment protocols. Rats were treated for either 5 or 8 days and then sacrificed by cervical dislocation. FIG. 1 illustrates the design of these experiments.
Upon sacrifice, the distal 8 cm of the colon was removed, opened by a longitudinal incision and rinsed with phosphate buffered saline to remove fecal material. Macroscopic assessment of colitis was carried out by an independent observer who was unaware of the treatment groups. Inflammation was present if the mucosa was erythematous. Ulceration of the mucosa was defined as a distinct break or interruption of the mucosa. Once macroscopic damage was assessed full thickness colonic tissue samples were taken from the inflamed areas and either processed for histology or snap frozen in liquid nitrogen for subsequent cytokine measurement and determination of myeloperoxidase (MPO) activity.

[3] = patients with inflammatory bowel disease; cited from earlier work
[4] = 8 days after TNBS, 5-day intracolonic treatment, 5-ASA 100 mg/kg, NAC 40 mM
[5] = 11 days after TNBS, 8-day intracolonic treatment

Structure (SMILES)	Reduction of MPO activity below TNBS values (Myeloperoxidase activity) [%]	Aggregate microscopic injury score (DSS-induced colitis)	Cumulative (aggregate) microscopic colitis injury score (TNBS-induced colitis [1])	Decrease in aggregate microscopic injury score (TNBS-induced colitis [1]) [%]	IL-1A gene expression, Mean ± SEM (IL-1A) [Relative O.D units]	IL-4 gene expression, Mean ± SEM (IL-4) [Relative O.D units]	TNF-α gene expression, Mean ± SEM (TNF-α) [Relative O.D units]	IL-1B gene expression, Mean ± SEM (IL-1B) [Relative O.D units]	IL-6 gene expression, Mean ± SEM (IL-6) [Relative O.D units]	Macroscopic injury score (TNBS-induced colitis [2]; [4])	Macroscopic injury score (TNBS-induced colitis [2]; [5])	Patients who cannot tolerate this medication (side effects) [3]
Nc1ccc(O)c(C(=O)O)c1 [5-ASA, 5-aminosalicylic acid]	32	4.1±0.9	9.0±0.9	46	1.33 ± 0.18	1.40 ± 0.25	1.25 ± 0.12	11.49 ± 2.54	0.79 ± 0.22	3.0±0.7	1.8±0.2	
CC(=O)N[C@@H](CS)C(=O)O [NAC, N-acetylcysteine]	40	4.0±1.1	9.0±1.8	53	1.28 ± 0.16	1.20 ± 0.26	1.04 ± 0.017	11.88 ± 1.0	0.76 ± 0.14	4.1±0.6	1.2±0.2	
O=C(O)c1cc(/N=N/c2ccc(S(=O)(=O)Nc3ccccn3)cc2)ccc1O [sulfasalazine]												up to one third

— patent US8629127B2, “Compositions and methods of treatment for inflammatory diseases” (The Board of Regents of the University of Oklahoma, priority 2004, dated 2014)
